Assay results from patent US20100160361A1, “TREATMENT OF MAJOR ADVERSE CARDIAC EVENTS AND ACUTE CORONARY SYNDROME USING SECRETORY PHOSPHOLIPASE A2 (SPLA2) INHIBITOR OR SPLA2 INHIBITOR COMBINATION THERAPIES” (priority 2008, published 2010).
Read-outs that look alike come from different tables or passages of the source.

Experiments:
[1] = Pharmacokinetics of A-002; conditions: in vivo
[2] = test system: stable CVD population; conditions: cited from earlier work
[3] = test system: serum hs-CRP; test: Serum hs-CRP levels in human ACS subjects; assay type: in vivo
Experimental: (§1) 625 adult (18 years of age or older) unstable human subjects who had recently experienced an index ACS event (UA, NSTEMI, or STEMI) were randomized to receive placebo or A-002 at 500 mg once daily via oral administration in a double-blinded manner. A-002 was delivered in the form of two 250 mg tablets. In addition, all subjects received atorvastatin at 80 mg once daily via oral administration of a single tablet.
(§2) Subjects were randomized within 96 hours of hospital admission for an index ACS event, or within 96 hours of index ACS event diagnosis if already hospitalized. Prior to randomization, subjects were screened for pertinent medical history, and baseline levels of LDL and hs-CRP were measured. Baseline sPLA2 levels were also measured in a random subset of subjects. Percutaneous revascularization, if required or planned for a particular subject, was performed prior to randomization.
(§3) Subjects were excluded if they were receiving statin therapy at maximum recommended or tolerated dosage (i.e., 40-80 mg QD for atorvastatin, fluvastatin, lovastatin, pravastatin, or simvastatin, or 20-40 mg QD rosuvastatin) at the time of the index ACS event. During the trial, subjects were prevented from using any lipid-lowering therapy other than 80 mg atorvastatin and/or A-002.
(§4) For purposes of this study, MACEs included all-cause mortality, non-fatal MI, documented UA requiring urgent hospitalization, revascularization occurring 60 days or more after the initial index ACS event, and non-fatal stroke. Subjects were evaluated at 2, 4, 8, 12, 16, 20, and 24 weeks after randomization and monthly thereafter until study completion. Each evaluation included measurement of serum LDL levels and recordation of any MACEs or less severe adverse events occurring since the previous evaluation. In addition, certain evaluation periods included measurement of one or more of hs-CRP, sPLA2, IL-6, and/or other biomarker levels, vital signs, weight, and/or waist circumference. […] This final evaluation included at least a complete physical examination, a 12-lead ECG reading, measurement of LDL, hs-CRP, sPLA2, and IL-6 levels, and recordation of any MACEs during the study period.

[4] = test system: Human ACS Subjects; test: Major adverse cardiac events (MACEs) in human ACS subjects; assay type: in vivo
Experimental: as §1, §2, §3, §4

[5] = test system: serum IL-6; test: Serum IL-6 levels in human ACS subjects; assay type: in vivo
Experimental: as §1, §2, §3, §4

[6] = test system: subjects that had recently experienced an ACS event; conditions: 80 mg atorvastatin; subjects that had recently experienced an ACS event (Schwartz 2001); cited from earlier work
[7] = test system: serum LDL; conditions: for % of subjects with [LDL] < 50 mg/dl / % of subjects with [LDL] < 70 mg/dl / % of subjects with [LDL] < 100 mg/dl / % change in mean [LDL] from baseline / Change in mean [LDL] from baseline: ITT population
[8] = test system: LDL and CRP levels; test: Reaching composite target LDL and hs-CRP levels in human ACS subjects; assay type: in vivo; conditions: ITT population
Experimental: as §1, §2, §3, §4

[9] = test system: serum sPLA2; test: Serum sPLA2 levels in human ACS subjects; assay type: in vivo; conditions: ITT population
Experimental: as §1, §2, §3, §4

[10] = ITT population, cumulative at 16 weeks

Question: Which “absorption and conversion to active molecule” value [1] does the source give for `CCc1c(C(=O)C(N)=O)c2c(OCC(=O)OC)cccc2n1Cc1ccccc1` [A-002, [[3-(2-Amino-1,2-dioxoethyl)-2-ethyl-1-(phenylmethyl)-1H-indol-4-yl]oxy]acetic acid methyl ester] here?
Answer: The value was “rapidly absorbed and hydrolyzed to the active A-001 molecule”.

Question: And the “effect on cholesterol levels” value ([2]; once- or twice-daily administration, stable CVD population, diabetic and high baseline LDL-C subpopulations)?
Answer: The value was “decreases total cholesterol, LDL-C, total LDL-C particle, and small LDL-C particle levels”.

Question: And the “effect on inflammatory markers” value ([2]; stable populations)?
Answer: Its value is “decreases levels of various inflammatory markers such as hs-CRP and sPLA2”.

Question: Which results are given for `CC(C)c1c(C(=O)Nc2ccccc2)c(-c2ccccc2)c(-c2ccc(F)cc2)n1CC[C@@H](O)C[C@@H](O)CC(=O)O` [Placebo (atorvastatin only), atorvastatin]?
Answer: % change in median [hs-CRP] from baseline ([3]; ITT population, Week 2): −20.0%; % change in median [hs-CRP] from baseline ([3]; ITT population, Week 4): −63.5%; % change in median [hs-CRP] from baseline ([3]; ITT population, Week 8): −71.0%; % change in median [hs-CRP] from baseline ([3]; ITT population, Week 16): −71.8%; % change in log mean [hs-CRP] from baseline ([3]; ITT population, Week 24): −77.0%; % change in median [hs-CRP] from baseline ([3]; diabetes subpopulation, Week 2): −11.0%; % change in median [hs-CRP] from baseline ([3]; diabetes subpopulation, Week 4): −51.1%; % change in median [hs-CRP] from baseline ([3]; diabetes subpopulation, Week 8): −67.6%; % change in median [hs-CRP] from baseline ([3]; diabetes subpopulation, Week 16): −72.4%; % change in median [hs-CRP] from baseline ([3]; diabetes subpopulation, Week 24): −76.1%; Death (# of events) ([4]; ITT population, 0-30 days): 4; MI (# of events) ([4]; ITT population, 0-30 days): 2; Stroke (# of events) ([4]; ITT population, 0-30 days): 0; Total MACE (# of events) ([4]; ITT population, 0-30 days): 12; UA (# of events) ([4]; ITT population, 0-30 days): 6; Death (# of events), cumulative ([4]; ITT population, 0-60 days): 4; MI (# of events), cumulative ([4]; ITT population, 0-60 days): 3; Stroke (# of events), cumulative ([4]; ITT population, 0-60 days): 0; Total MACE (# of events), cumulative ([4]; ITT population, 0-60 days): 14; UA (# of events), cumulative ([4]; ITT population, 0-60 days): 7; Death (# of events), cumulative ([4]; ITT population, 0-90 days): 5; MI (# of events), cumulative ([4]; ITT population, 0-90 days): 3; Stroke (# of events), cumulative ([4]; ITT population, 0-90 days): 1; Total MACE (# of events), cumulative ([4]; ITT population, 0-90 days): 17; UA (# of events), cumulative ([4]; ITT population, 0-90 days): 8; Death (# of events), cumulative ([4]; ITT population, 0-112 days): 5; MI (# of events), cumulative ([4]; ITT population, 0-112 days): 4; Stroke (# of events), cumulative ([4]; ITT population, 0-112 days): 1; Total MACE (# of events), cumulative ([4]; ITT population, 0-112 days): 19; UA (# of events), cumulative ([4]; ITT population, 0-112 days): 9; Death (# of events) ([4]; ITT population, 30-60 days): 0; MI (# of events) ([4]; ITT population, 30-60 days): 1; Stroke (# of events) ([4]; ITT population, 30-60 days): 0; Total MACE (# of events) ([4]; ITT population, 30-60 days): 2; UA (# of events) ([4]; ITT population, 30-60 days): 1; Death (# of events) ([4]; ITT population, 60-90 days): 1; MI (# of events) ([4]; ITT population, 60-90 days): 0; Stroke (# of events) ([4]; ITT population, 60-90 days): 1; Total MACE (# of events) ([4]; ITT population, 60-90 days): 3; UA (# of events) ([4]; ITT population, 60-90 days): 1; Death (# of events) ([4]; ITT population, 90-112 days): 0; MI (# of events) ([4]; ITT population, 90-112 days): 1; Stroke (# of events) ([4]; ITT population, 90-112 days): 0; Total MACE (# of events) ([4]; ITT population, 90-112 days): 2; UA (# of events) ([4]; ITT population, 90-112 days): 1; Death (% of subjects) [4, 10]: 1.6%; Death (number) [4, 10]: 5; MI (% of subjects) [4, 10]: 1.3%; MI (number) [4, 10]: 4; Revascularization ≧ 60 days (number) [4, 10]: 0; Stroke (% of subjects) [4, 10]: 0.3%; Stroke (number) [4, 10]: 1; Total MACEs (% of subjects) [4, 10]: 6.1%; Total MACEs (number) [4, 10]: 19; UA requiring hospitalization (% of subjects) [4, 10]: 2.9%; UA requiring hospitalization (number) [4, 10]: 9; % of subjects who experienced a MACE ([4]; days 0 to 30): 3.9%; % of subjects who experienced a MACE ([4]; days 0 to 60): 4.5%; % of subjects who experienced a MACE ([4]; days 0 to 90): 5.5%; % change in median [IL-6] from baseline ([5]; ITT population, Week 2): −5.2%; % change in median [IL-6] from baseline ([5]; ITT population, Week 4): −33.7%; % change in median [IL-6] from baseline ([5]; ITT population, Week 8): −38.3%; % change in median [IL-6] from baseline ([5]; diabetes subpopulation, Week 2): +3.5%; % change in median [IL-6] from baseline ([5]; diabetes subpopulation, Week 4): −23.9%; % change in median [IL-6] from baseline ([5]; diabetes subpopulation, Week 8): −40.4%; absolute reduction in death, non-fatal MI, cardiac arrest with resuscitation, or worsening symptomatic myocardial ischemia [6]: 2.6%; relative reduction in death, non-fatal MI, cardiac arrest with resuscitation, or worsening symptomatic myocardial ischemia [6]: 16%; % of subjects with [LDL] < 50 mg/dl ([7]; Baseline): 1.1%; % of subjects with [LDL] < 70 mg/dl ([7]; Baseline): 5.2%; % of subjects with [LDL] < 100 mg/dl ([7]; Baseline): 24.1%; % change in mean [LDL] from baseline ([7]; Week 2): −41.7%; % of subjects with [LDL] < 50 mg/dl ([7]; Week 2): 21.9%; % of subjects with [LDL] < 70 mg/dl ([7]; Week 2): 54.6%; % of subjects with [LDL] < 100 mg/dl ([7]; Week 2): 89.1%; Change in mean [LDL] from baseline ([7]; Week 2): -52.5 mg/dL; % change in mean [LDL] from baseline ([7]; Week 4): −42.3%; % of subjects with [LDL] < 50 mg/dl ([7]; Week 4): 25.0%; % of subjects with [LDL] < 70 mg/dl ([7]; Week 4): 54.8%; % of subjects with [LDL] < 100 mg/dl ([7]; Week 4): 91.2%; Change in mean [LDL] from baseline ([7]; Week 4): -55.5 mg/dL; % change in mean [LDL] from baseline ([7]; Week 8): −43.8%; % of subjects with [LDL] < 50 mg/dl ([7]; Week 8): 22.7%; % of subjects with [LDL] < 70 mg/dl ([7]; Week 8): 59.9%; % of subjects with [LDL] < 100 mg/dl ([7]; Week 8): 91.4%; Change in mean [LDL] from baseline ([7]; Week 8): -56.6 mg/dL; % change in mean [LDL] from baseline ([7]; Week 16): −36.5%; % of subjects with [LDL] < 50 mg/dl ([7]; Week 16): 16.8%; % of subjects with [LDL] < 70 mg/dl ([7]; Week 16): 48.3%; % of subjects with [LDL] < 100 mg/dl ([7]; Week 16): 82.4%; Change in mean [LDL] from baseline ([7]; Week 16): -48.1 mg/dL; % change in mean [LDL] from baseline ([7]; Week 24): −38.2%; % of subjects with [LDL] < 50 mg/dl ([7]; Week 24): 14.1%; % of subjects with [LDL] < 70 mg/dl ([7]; Week 24): 50.0%; % of subjects with [LDL] < 100 mg/dl ([7]; Week 24): 86.5%; Change in mean [LDL] from baseline ([7]; Week 24): -50.0 mg/dL; percentage of subjects reaching target LDL levels of 50 mg/dl or less ([7]; final study visit): 16.0%; percentage of subjects reaching target LDL levels of 70 mg/dl or less ([7]; final study visit): 42.8%; % of subjects with mean [LDL] < 70 mg/dl and [hs-CRP] <1 mg/L ([8]; Baseline): 0.4%; % of subjects with mean [LDL] < 70 mg/dl and [hs-CRP] < 3 mg/L ([8]; Baseline): 1.4%; % of subjects with mean [LDL] < 70 mg/dl and [hs-CRP] <1 mg/L ([8]; Week 2): 5.6%; % of subjects with mean [LDL] < 70 mg/dl and [hs-CRP] < 3 mg/L ([8]; Week 2): 16.4%; % of subjects with mean [LDL] < 70 mg/dl and [hs-CRP] <1 mg/L ([8]; Week 4): 12.8%; % of subjects with mean [LDL] < 70 mg/dl and [hs-CRP] < 3 mg/L ([8]; Week 4): 30.5%; % of subjects with mean [LDL] < 70 mg/dl and [hs-CRP] <1 mg/L ([8]; Week 8): 17.5%; % of subjects with mean [LDL] < 70 mg/dl and [hs-CRP] < 3 mg/L ([8]; Week 8): 36.8%; % of subjects with mean [LDL] < 70 mg/dl and [hs-CRP] <1 mg/L ([8]; Week 16): 15.6%; % of subjects with mean [LDL] < 70 mg/dl and [hs-CRP] < 3 mg/L ([8]; Week 16): 32.9%; % of subjects with mean [LDL] < 70 mg/dl and [hs-CRP] <1 mg/L ([8]; Week 24): 15.9%; % of subjects with mean [LDL] < 70 mg/dl and [hs-CRP] < 3 mg/L ([8]; Week 24): 34.1%; % change in median [sPLA2] from baseline ([9]; Week 2): +5.4%; % change in median [sPLA2] from baseline ([9]; Week 4): −7.0%; % change in median [sPLA2] from baseline ([9]; Week 8): −15.6%; % change in median [sPLA2] from baseline ([9]; Week 16): −12.1%
